{"source": "patent US20240252519A1", "about": "“METHODS FOR THE TREATMENT OF POST-TRAUMATIC STRESS DISORDER AND TRAUMATIC BRAIN INJURY WITH CANNABINOIDS” (ANANDA SCIENTIFIC, INC., priority 2021, published 2024)", "key": {"[1]": {"conditions": "doses ranging from 10 mg to 6000 mg, single and multiple doses; cited from earlier work"}, "[2]": {"experiment": "Chemical characteristics of composition A′, concentrated and diluted forms", "type": "physicochemical", "description": "Several tests were conducted to determine the chemical characteristics of composition A′, both in concentrated and diluted forms. […] All liquid nanodomain droplets range in size from 5 to 20 nm. The pH of both the concentrate and diluted formulations is between 6.0 and 7.5."}, "CB2 receptors": {"molecular_target": "CB2 receptors (Homo sapiens, UniProt P34972)", "sequence (P34972 whole entry)": "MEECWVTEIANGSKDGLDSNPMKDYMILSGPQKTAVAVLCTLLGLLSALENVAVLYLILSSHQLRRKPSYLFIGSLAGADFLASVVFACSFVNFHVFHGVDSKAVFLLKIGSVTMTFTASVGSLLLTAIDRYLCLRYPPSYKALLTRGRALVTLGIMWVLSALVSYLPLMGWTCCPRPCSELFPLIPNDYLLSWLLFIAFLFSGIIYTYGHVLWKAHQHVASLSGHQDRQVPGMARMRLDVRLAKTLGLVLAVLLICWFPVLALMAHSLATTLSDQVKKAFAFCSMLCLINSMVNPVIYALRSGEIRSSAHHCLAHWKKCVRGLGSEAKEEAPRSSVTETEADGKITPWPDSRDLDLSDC", "conditions": "cited from earlier work"}, "[3]": {"conditions": "rats, cited from earlier work"}}}
{"smiles": "C=C(C)[C@@H]1CCC(C)=C[C@H]1c1c(O)cc(CCCCC)cc1O", "note": "[CBD, 2-(1R,6R)-3-methyl-6-prop-1-en-2-ylcyclohex-2-en-1-yl-5-pentylbenzene-1,3-diol]", "values": [{"measurement": "Safety", "setting": "[1]", "result": "safe"}, {"measurement": "logP", "setting": "[2]", "result": "~6"}, {"measurement": "Affinity for CB2 receptors", "setting": "CB2 receptors", "result": "low affinity"}, {"measurement": "T1/2", "setting": "[3]; 120 mg/kg dose, oral", "result": "4 to 5", "unit": "h"}, {"measurement": "Bioavailability of CBD delivered orally", "setting": "[3]; single 10 mg/kg", "result": 2.8, "unit": "%"}]}
